# From US8669254B2, “Pyridine, pyridazine, pyrimidine or pyrazine carboxamides as HDL-cholesterol raising agents” (Hoffman-La Roche Inc., priority 2010, dated 2014)
# pEC50: −log10 of the molar value. Read-outs that look alike come from different tables or passages of the source.
# Tests used:
# ABCA1 protein = assay: Detection of upregulation of ABCA1 protein in cells (ApoA-I binding, high content image analysis); format: cell-based; conditions: THP-1 macrophage cells; for % increase of ABCA1 at 3 μM: compound at 3 μM, 24 hrs; for pEC50: ABCA1 protein detection assay
# Protocol: The ability of compounds of the invention to increase the level of ABCA1 protein is determined in replicate cultures of THP-1 macrophage cells in 96-well microplates. Cells are plated at an initial density of 100,000 cells/well in 100 μl medium and differentiated to adherent macrophages with the addition of PMA (100 nM) for 68 hrs in 10% fetal bovine serum, 3 μl/L of b-mercaptoethanol, RPMI-1640 medium. Then, cells are incubated with RPMI-1640 medium containing 1% FCS, 25 μg/ml acetylated LDL, for 24 hours at 37°. Following incubation with acetylated LDL, cells are washed twice with 50 μl PBS and incubated with 100 μl of RPMI-1640 medium containing the compound of interest solubilized in DMSO for an additional 24 hrs. The final DMSO concentration in presence of cells is maintained at 0.5%. ApoA-I binding assay using High Content Image Analysis is initiated by replacing with fresh medium, RPMI without Phenol Red, 0.2% BSA containing AlexaFluor®647 labeled ApoA-I for 2 h/37° C./5% CO2. Then, cells are fixed with 4% Formaldehyde in PBS (15 min, RT). Following Nuclei are stained with Hoechst solution (3 μM PBS) and Cytoplasm with Cell Mask Blue (2 μg/ml PBS), 15 min, RT. Finally the stained cells are fixed with a second round of formaldehyde treatment. Fixed stained cells are washed and kept in PBS at 4° C. and can be read immediately until one month after preparation.
# The Alexa Fluor 647-labeled Apolipoprotein A-I (20 nM) was prepared as follows: Human recombinant Apolipoprotein A-I (ApoA-I) was exchanged to a buffer of 0.02 M NaHCO3 at pH 8.2 on an NAP desalting column (GE Healthcare) and brought to a concentration to 40 μM (1.13 mg/ml) by adjustment with the same buffer. The ApoA-I was fluorescently labeled by incubation with Alexa Fluor carboxylic acid succimidyl ester (Alexa Fluor 647, Invitrogen A-20006) at a 2:1 molar ratio (Alexa to ApoA-I) for 1 h under shaking at RT). The remaining unconjugated label was removed by buffer exchange to 0.02M NaHCO3 at pH 8.2.
# Imaging and data collection were performed on an OPERA confocal microplate imaging reader using a 20× water immersion objective and UV360 or 405 laser to identify the cell nuclei and a 635 laser to identify the fluorescent ApoA-I. Eight fields of view are captured per well. Image capture and analysis was performed with the Acapella software. Background fluorescence detected in control wells without ApoA-I was subtracted.
# Using XLfit3 program (ID Business Solutions Ltd. UK), the model 205 for Dose Response One Site is used to calculate the EC50 values. […] Particularly, the compounds of the present invention have EC50 values in a range of 0.1 μM to 3 μM.
# human CB1 receptor = target: T1, human CB1 receptor (Homo sapiens, UniProt P21554); assay: CB1 receptor affinity ([3H]-CP-55,940 displacement); format: binding; conditions: read-out: CB1 receptor affinity [% inhibition @ 10 μM]
# T1 construct: expressed in transfected cells; host or cells: human embryonic kidney (HEK) cells, Semliki Forest Virus system, membrane preparation
# T1 sequence (P21554 whole entry): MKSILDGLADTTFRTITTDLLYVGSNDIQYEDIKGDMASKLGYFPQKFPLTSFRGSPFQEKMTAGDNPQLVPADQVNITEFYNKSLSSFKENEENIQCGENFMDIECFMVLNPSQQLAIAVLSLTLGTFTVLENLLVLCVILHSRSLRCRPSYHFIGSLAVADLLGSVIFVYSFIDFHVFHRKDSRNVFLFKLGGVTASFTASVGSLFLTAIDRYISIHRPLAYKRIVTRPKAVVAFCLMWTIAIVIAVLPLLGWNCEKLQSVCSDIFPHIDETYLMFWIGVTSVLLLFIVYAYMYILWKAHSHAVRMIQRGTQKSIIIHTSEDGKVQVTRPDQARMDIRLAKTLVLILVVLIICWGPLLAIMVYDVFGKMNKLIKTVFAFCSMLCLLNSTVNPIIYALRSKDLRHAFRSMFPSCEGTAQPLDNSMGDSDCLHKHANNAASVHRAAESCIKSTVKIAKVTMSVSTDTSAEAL
# Protocol: (§1) The affinity of the compounds of the invention for cannabinoid receptors was determined using membrane preparations of human embryonic kidney (HEK) cells in which the human CB1 receptor is transiently transfected using a Semliki Forest Virus system in conjunction with [3H]-CP-55,940 as radioligand. After incubation of freshly prepared cell membrane preparation with the [^3H]-ligand, with or without addition of compounds of the invention, separation of bound and free ligand was performed by filtration over glass fiber filters. Radioactivity on the filter was measured by scintillation counting.
# (§2) The ability of the compounds to displace the radioligand [^3H]-CP-55,940 was measured at a concentration of 10 μM and values provided as [% inhibition @ 10 μM] both for the CB 1 and CB2 receptor assay, The lower % inhibition is, the lower the likelihood of side effects based on CB1 or CB2 receptor inhibition is.
# human CB2 receptor = target: T2, human CB2 receptor (Homo sapiens, UniProt P34972); assay: CB2 receptor affinity ([3H]-CP-55,940 displacement); format: binding; conditions: HEK cell membranes, radioligand [3H]-CP-55,940
# T2 construct: expressed in transfected cells; host or cells: human embryonic kidney (HEK) cells, Semliki Forest Virus system, membrane preparation
# T2 sequence (P34972 whole entry): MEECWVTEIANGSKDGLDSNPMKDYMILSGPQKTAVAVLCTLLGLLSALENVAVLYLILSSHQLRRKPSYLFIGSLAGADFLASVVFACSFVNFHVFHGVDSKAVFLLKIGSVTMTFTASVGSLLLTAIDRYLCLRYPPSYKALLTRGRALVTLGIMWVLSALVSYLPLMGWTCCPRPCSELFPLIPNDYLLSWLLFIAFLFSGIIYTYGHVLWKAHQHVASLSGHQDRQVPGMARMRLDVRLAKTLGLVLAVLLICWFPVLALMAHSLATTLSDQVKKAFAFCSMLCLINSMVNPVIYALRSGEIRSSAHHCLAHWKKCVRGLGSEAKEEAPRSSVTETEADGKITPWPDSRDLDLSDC
# Protocol: as §1, with “cannabinoid CB2” for “cannabinoid”, “CB2” for “CB1”, “[^3H]-CP-55,940” for “[3H]-CP-55,940”
# as §2
# [1] = 10 μM, HEK cell membranes, radioligand [3H]-CP-55,940
Compound,inhibition at 10 µM (human CB1 receptor; [1]) [%],inhibition at 10 µM (human CB2 receptor) [%],% increase of ABCA1 at 3 μM (ABCA1 protein) [% @ 3 μM],pEC50 (ABCA1 protein),inhibition at 10 µM (human CB1 receptor) [%]
"O=C(NC/C(=N/O)C1CC1)c1cnc(OCC(F)(F)F)c(-c2ccc(Cl)c(Cl)c2)c1 [Example 11, N-(E)-(2-Cyclopropyl-2-hydroxyimino-ethyl)-5-(3,4-dichloro-phenyl)-6-(2,2,2-trifluoro-ethoxy)-nicotinamide]",30,44.3,55.9,,
"CO/N=C1\CCCC[C@@H]1NC(=O)c1cc(-c2ccc(Cl)cc2)c(OCC(F)(F)F)nn1 [Example 17, 5-(4-Chloro-phenyl)-6-(2,2,2-trifluoro-ethoxy)-pyridazine-3-carboxylic acid {(S)-2-[(E)-methoxyimino]-cyclohexyl}-amide]",16.6,13.6,76.5,5.58,
"O=C(N[C@H]1CCCC/C1=N\OCC(F)(F)F)c1cnc(OCC2CC2)c(-c2ccc(Cl)cc2)c1 [Example 4, 5-(4-Chloro-phenyl)-6-cyclopropylmethoxy-N-{(S)-2-[(E)-2,2,2-trifluoro-ethoxyimino]-cyclohexyl}-nicotinamide]",48.5,8.91,90.4,,
"CO/N=C1\CCCC[C@@H]1NC(=O)c1cnc(OCC2CC2)c(-c2ccc(Cl)cc2)c1 [Example 1, 5-(4-Chloro-phenyl)-6-cyclopropylmethoxy-N-{(S)-2-[(E)-methoxyimino]-cyclohexyl}-nicotinamide]",,17.2,87.2,6.15,34
"NC(=O)CO/N=C1\CCCC[C@@H]1NC(=O)c1cnc(OCC2CC2)c(-c2ccc(Cl)cc2)c1 [Example 5, N-{(S)-2-[(E)-Carbamoylmethoxyimino]-cyclohexyl}-5-(4-chloro-phenyl)-6-cyclopropylmethoxy-nicotinamide]",33.1,15.1,65.2,5.69,
"COCO/N=C1\CCCC[C@@H]1NC(=O)c1cnc(OCC2CC2)c(-c2ccc(Cl)cc2)c1 [Example 6, 5-(4-Chloro-phenyl)-6-cyclopropylmethoxy-N-{(S)-2-[(E)-methoxymethoxyimino]-cyclohexyl}-nicotinamide]",36.7,19.2,71.9,,
"CO/N=C1\CCCC[C@H]1NC(=O)c1cnc(OCC(F)(F)F)c(-c2ccc(Cl)c(Cl)c2)c1 [Example 8, 5-(3,4-Dichloro-phenyl)-N-{(R)-2-[(E)-methoxyimino]-cyclohexyl}-6-(2,2,2-trifluoro-ethoxy)-nicotinamide]",,13.1,63,6.09,35.2
"CO/N=C(/CNC(=O)c1cnc(OCC(F)(F)F)c(-c2ccc(Cl)c(Cl)c2)c1)C1CC1 [Example 12, N-{2-Cyclopropyl-2-[(E)-methoxyimino]-ethyl}-5-(3,4-dichloro-phenyl)-6-(2,2,2-trifluoro-ethoxy)-nicotinamide]",26.8,47.7,88.4,,
"CO/N=C1\CCCC[C@H]1NC(=O)c1cc(-c2ccc(Cl)cc2)c(OCC(F)(F)F)nn1 [Example 16, 5-(4-Chloro-phenyl)-6-(2,2,2-trifluoro-ethoxy)-pyridazine-3-carboxylic acid {(R)-2-[(E)-methoxyimino]-cyclohexyl}-amide]",25.4,16.6,55.3,5.00,
"CO/N=C1\CCCC[C@@H]1NC(=O)c1cnc(OCC(F)(F)F)c(-c2ccc(Cl)cc2)c1 [Example 2, 5-(4-Chloro-phenyl)-N-{(S)-2-[(E)-methoxyimino]-cyclohexyl}-6-(2,2,2-trifluoro-ethoxy)-nicotinamide]",30.8,3.53,88.3,5.74,
"CO/N=C1\CCCC[C@@H]1NC(=O)c1cc(-c2ccc(Cl)cc2)c(OCC(F)(F)F)cn1 [Example 9, 4-(4-Chloro-phenyl)-5-(2,2,2-trifluoro-ethoxy)-pyridine-2-carboxylic acid {(S)-2-[(E)-methoxyimino]-cyclohexyl}-amide]",15.9,37.6,71.7,,
"CO/N=C(\CNC(=O)c1cnc(OCC(F)(F)F)c(-c2ccc(Cl)cc2)c1)C1CC1 [Example 13, 5-(4-Chloro-phenyl)-N-{2-cyclopropyl-2-[(Z)-methoxyimino]-ethyl}-6-(2,2,2-trifluoro-ethoxy)-nicotinamide]",48.6,1.52,66.2,,

# The next lines start with results.
inhibition at 10 µM (human CB1 receptor; [1]) [%],inhibition at 10 µM (human CB2 receptor) [%],Compound,% increase of ABCA1 at 3 μM (ABCA1 protein) [% @ 3 μM],pEC50 (ABCA1 protein),inhibition at 10 µM (human CB1 receptor) [%]
26.9,32.5,"CO/N=C1\CCCC[C@@H]1NC(=O)c1cc(-c2ccc(Cl)cc2)c(OCC2CC2)nn1 [Example 18, 5-(4-Chloro-phenyl)-6-cyclopropylmethoxy-pyridazine-3-carboxylic acid {(S)-2-[(E)-methoxyimino]-cyclohexyl}-amide]",57.3,5.30,
28,63.8,"CO/N=C(\CNC(=O)c1ncc(OCC2CC2)c(-c2ccc(Cl)cc2)n1)C1CC1 [Example 19, 4-(4-Chloro-phenyl)-5-cyclopropylmethoxy-pyrimidine-2-carboxylic acid {2-cyclopropyl-2-[(Z)-methoxyimino]-ethyl}-amide]",84.2,,
39,29,"CO/N=C(/CNC(=O)c1cc(-c2ccc(Cl)cc2)c(O[C@@H](C)C(F)(F)F)nn1)C1CC1 [Example 25, (S,E)-5-(4-Chlorophenyl)-N-(2-cyclopropyl-2-(methoxyimino)ethyl)-6-(1,1,1-trifluoropropan-2-yloxy)pyridazine-3-carboxamide]",61,,
36,9,"O=C(NC/C(=N/OCC(F)(F)F)C1CC1)c1cnc(OCC(F)(F)F)c(-c2ccc(Cl)c(Cl)c2)c1 [Example 22, N-{2-Cyclopropyl-2-[(E/Z)-2,2,2-trifluoro-ethoxyimino]-ethyl}-5-(3,4-dichloro-phenyl)-6-(2,2,2-trifluoro-ethoxy)-nicotinamide]",74,,
41,31,"CO/N=C(/CNC(=O)c1ccc(OCC(F)(F)F)c(-c2ccc(Cl)cc2)n1)C(F)(F)F [Example 21, 6-(4-Chloro-phenyl)-5-(2,2,2-trifluoro-ethoxy)-pyridine-2-carboxylic acid {3,3,3-trifluoro-2-[(Z)-methoxyimino]-propyl}-amide]",50,,
